Experimental data published in patent publication US20030199671A1, “Binding molecules for Fc-region polypeptides” (priority 2001, published 2003).
“And” between values parts separate entries of the source, which are not always exact repeats. Identical values can stand only once. Like-named read-outs stand apart in the source and are kept apart here. Blank lines part the entries; values can stand above or below the molecule they belong to. Positions of bridges follow the written chain, without caps; N, C: chain ends. Residues, ends and D or L forms follow the SMILES beside them. *: point of attachment. 5FAM = O=C1OC2(c3ccc(O)cc3Oc3cc(O)ccc32)c2ccc(C(=O)*)cc21

Columns and labels:
IgG3 = IgG3 (Homo sapiens, UniProt P01860); type: binding; design: all human subtypes derived from myeloma patients; purchased Calbiochem 400124; host or cells: myeloma patients; details: Table 9; immobilized peptide, 5.0 mg/ml resin load
Sequence of IgG3 (P01860 1-377 isoform P01860-1): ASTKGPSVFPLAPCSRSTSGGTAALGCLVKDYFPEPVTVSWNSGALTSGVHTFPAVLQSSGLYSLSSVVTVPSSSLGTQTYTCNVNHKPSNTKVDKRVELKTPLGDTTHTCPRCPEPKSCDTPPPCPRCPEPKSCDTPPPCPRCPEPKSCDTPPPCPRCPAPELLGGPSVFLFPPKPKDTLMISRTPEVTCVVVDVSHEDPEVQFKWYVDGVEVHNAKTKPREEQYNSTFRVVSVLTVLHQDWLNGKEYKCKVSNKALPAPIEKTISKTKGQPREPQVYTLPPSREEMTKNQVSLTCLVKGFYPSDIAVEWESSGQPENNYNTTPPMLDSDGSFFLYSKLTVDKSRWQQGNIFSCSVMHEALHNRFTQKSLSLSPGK
Procedure: In addition, the following targets, all unfractionated IgGs, were also evaluated with selected immobilized peptides for species specificity characterization in a similar format: human IgG, goat IgG, bovine IgG, and mouse IgG (Sigma, product nos. I4506, I5256, I5506, and I15381, respectively). In addition, 10 μl aliquots of hydrolyzed NHS-activated Sepharose 4 Fast Flow (Amersham Pharmacia Biotech, product no. 17-0906-01) and immobilized recombinant Protein A (RepliGen Corp., product no. IPA-400) were also assayed as negative and positive controls. IgG targets were diluted into 10 mM phosphate buffer containing 150 mM NaCl and 0.01% Tween 20, pH 7.2 (PBST) or 50 mM Tris buffer containing, 150 mM NaCl and 0.01% Tween-20, pH 7.5 (TBST). Batch (static) binding and elution studies were conducted in a 96-well assay filterplate (Millipore MultiScreen-HV, with 0.45 μm Durapore membrane, product no. MAHVN4510). The target was allowed to incubate with the resin for 1-1.5 hours with shaking at room temperature. Unbound target was collected by centrifugation of samples from the assay plate directly into a low-UV absorbing 96-well collection plate (Costar, product no. 3635 or Greiner, product no. 655801). The unbound target was then quantitated by reading the absorbance at 280 nm (normalized to 1 cm pathlength, 1.4 mg/ml A280 extinction coefficient) of the collection plate on a microplate spectrophotometer (Molecular Devices Corp., SPECTRAmax PLUS) against a buffer blank.
The percentage bound target was determined by subtracting the mass determined as unbound from the corresponding condition's control values (control non-filtered added directly to the collection plate and/or the negative control). The assay plate was washed (3×) with 200 μl of binding buffer by vacuum filtration followed by addition of 100 μl of various elution conditions (e.g.: 0.1 M sodium bicarbonate buffer, pH 8.5 and/or 0.1 M sodium citrate buffer, pH 4.0). After a 30-60 minute incubation with shaking at room temperature, the eluted target was collected by centrifugation of the assay plate into another collection plate and quantitated in a similar manner. Percent elution of total load was then determined to characterize elution recovery efficiency under various conditions. The assay plate was then washed (3×) with 200 μl of binding buffer by vacuum filtration followed by addition of a resin cleaning condition (e.g., 0.1M CAPS buffer (3-[Cyclohexylamino]-1-propane-sulfonic acid), pH 11.5, to regenerate the resin for re-use. Percentage mass balance determination was calculated to be 90-100% on average.

IgG4 = IgG4 (Homo sapiens, UniProt P01861); type: binding; design: all human subtypes derived from myeloma patients; purchased Calbiochem 400126; host or cells: myeloma patients; details: Table 9; immobilized peptide, 5.0 mg/ml resin load
Sequence of IgG4 (P01861 1-327 isoform P01861-1): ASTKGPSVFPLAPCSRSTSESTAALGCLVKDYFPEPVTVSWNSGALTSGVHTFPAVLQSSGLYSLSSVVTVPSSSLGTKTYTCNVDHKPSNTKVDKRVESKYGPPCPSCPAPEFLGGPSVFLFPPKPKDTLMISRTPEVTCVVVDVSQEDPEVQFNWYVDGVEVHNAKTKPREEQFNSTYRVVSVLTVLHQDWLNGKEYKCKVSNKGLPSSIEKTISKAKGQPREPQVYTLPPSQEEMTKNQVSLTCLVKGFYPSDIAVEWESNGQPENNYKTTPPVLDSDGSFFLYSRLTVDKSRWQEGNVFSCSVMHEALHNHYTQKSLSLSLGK
Summary of the method: (§1)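 Read-out is A280 of unbound IgG (1.4 mg/ml extinction coefficient), with percent bound derived against non-filtered or negative controls. Targets were incubated with immobilized peptides in PBST or TBST for 1-1.5 h at room temperature. Hydrolyzed Sepharose and immobilized Protein A serve as negative and positive controls.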

goat IgG = type: binding; details: Table 11; unfractionated IgG
Summary of the method: (§2)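 Unfractionated IgG in PBST (10 mM phosphate, 150 mM NaCl, 0.01% Tween 20, pH 7.2) or TBST (50 mM Tris, pH 7.5) was batch-incubated with immobilized peptide resin for 1-1.5 h at room temperature. Unbound IgG was quantitated by A280, and percent bound was taken by subtraction from control values.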

human IgG1 = biological target: T1, human IgG1 (Homo sapiens, UniProt P01857); type: binding; details: Table 9; immobilized peptide, 5.0 mg/ml resin load
T1 construct: all human subtypes derived from myeloma patients; purchased Calbiochem 400120; host or cells: myeloma patients
T1 sequence (P01857 1-330 isoform P01857-1): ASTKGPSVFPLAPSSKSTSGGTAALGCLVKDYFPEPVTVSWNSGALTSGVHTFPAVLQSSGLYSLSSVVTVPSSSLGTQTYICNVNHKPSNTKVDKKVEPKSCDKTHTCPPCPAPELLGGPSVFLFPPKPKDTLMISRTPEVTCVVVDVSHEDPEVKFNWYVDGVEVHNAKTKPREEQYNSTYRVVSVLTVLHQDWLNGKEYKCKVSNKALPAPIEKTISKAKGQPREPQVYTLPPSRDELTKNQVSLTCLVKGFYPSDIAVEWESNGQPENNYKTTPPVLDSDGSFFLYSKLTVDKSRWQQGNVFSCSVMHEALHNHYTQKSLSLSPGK
Summary of the method: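 Steps: dilute IgG in PBST or TBST; incubate with immobilized peptide 1-1.5 h, RT; collect unbound by centrifugation; measure A280; wash three times; elute with 0.1 M sodium bicarbonate pH 8.5 and/or 0.1 M sodium citrate pH 4.0 for 30-60 min and quantitate.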

human IgG2 = biological target: T2, human IgG2 (Homo sapiens, UniProt P01859); type: binding; details: Table 9; immobilized peptide, 5.0 mg/ml resin load
T2 construct: all human subtypes derived from myeloma patients; purchased Calbiochem 400122; host or cells: myeloma patients
T2 sequence (P01859 1-326 isoform P01859-1): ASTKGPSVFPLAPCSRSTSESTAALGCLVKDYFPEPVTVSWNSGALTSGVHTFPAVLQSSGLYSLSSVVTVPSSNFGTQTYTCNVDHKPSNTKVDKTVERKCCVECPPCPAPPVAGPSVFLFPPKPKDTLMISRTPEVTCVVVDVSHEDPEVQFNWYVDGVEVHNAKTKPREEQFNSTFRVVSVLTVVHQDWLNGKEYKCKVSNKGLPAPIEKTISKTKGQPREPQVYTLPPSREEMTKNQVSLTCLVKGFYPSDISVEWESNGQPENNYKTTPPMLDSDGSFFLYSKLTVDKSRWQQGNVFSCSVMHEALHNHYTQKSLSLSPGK
Summary of the method: as §1

human IgG = type: binding; details: Table 11; unfractionated IgG
Summary of the method: as §2

bovine IgG = type: binding; details: Table 11; unfractionated IgG
Summary of the method: as §2

mouse IgG = type: binding; details: Table 11; unfractionated IgG
Summary of the method: as §2

human plasma IgG2 = biological target: T3, human plasma IgG2 (Homo sapiens, UniProt P01859); assay: Fluorescence anisotropy binding, Oregon Green labeled peptide
T3 construct: the individual human plasma IgG isoforms: IgG1, IgG2, IgG3, or IgG4; purchased Calbiochem; host or cells: human plasma
T3 sequence (P01859 1-326 isoform P01859-1): as above
Procedure: (§3) Peptides were synthesized by BACHEM and then Oregon Green labeled and HPLC purified. Binding studies were performed using human plasma IgG isoforms: IgG1, IgG2, IgG3, and IgG4, obtained from Calbiochem.
(§4) Binding studies were carried out at either pH 4.0, 7.5, or 9.5, with or without salt in the following buffers:
(§5) 2) 10 mM Sodium Citrate, 500 mM Sodium Chloride, 0.01% Tween 20, pH 4.0;
(§6) 4) […], 500 mM Sodium Chloride, 0.01% Tween 20, pH 7.5;
(§7) 5) 10 mM Sodium Bicarbonate, 0.01% Tween 20, pH 9.5;
(§8) 6) 10 mM Sodium Bicarbonate, 500 mM Sodium Chloride, 0.01% Tween 20, pH 9.5; or […]

human plasma IgG1 = biological target: T4, human plasma IgG1 (Homo sapiens, UniProt P01857); assay: as above
T4 construct: the individual human plasma IgG isoforms: IgG1, IgG2, IgG3, or IgG4; purchased Calbiochem; host or cells: human plasma
T4 sequence (P01857 1-330 isoform P01857-1): as the sequence (P01857 1-330 isoform P01857-1) above
Procedure: as §3, §4, §5, §6, §7, §8

human plasma IgG3 [1] = biological target: T5, human plasma IgG3 (Homo sapiens, UniProt P01860); assay: as above
T5 construct: the individual human plasma IgG isoforms: IgG1, IgG2, IgG3, or IgG4; purchased Calbiochem; host or cells: human plasma
T5 sequence (P01860 1-377 isoform P01860-1): as the sequence (P01860 1-377 isoform P01860-1) above
Procedure: as §3, §4, §5, §6, §7, §8

human plasma IgG4 = biological target: T6, human plasma IgG4 (Homo sapiens, UniProt P01861); assay: as above
T6 construct: the individual human plasma IgG isoforms: IgG1, IgG2, IgG3, or IgG4; purchased Calbiochem; host or cells: human plasma
T6 sequence (P01861 1-327 isoform P01861-1): as the sequence (P01861 1-327 isoform P01861-1) above
Procedure: as §3, §4, §5, §6, §7, §8

human plasma IgG3 [2] = biological target: T5, human plasma IgG3; assay: Fluorescence anisotropy binding, fluorescein-labeled peptide; details: 2 nM labeled peptide; PBS with 0.01% Tween 20
Procedure: (§9) Peptides were synthesized by BACHEM Bioscience, Inc., (King of Prussia, Pa.), fluorescein labeled and purified by HPLC. Binding studies were performed using either a mixture of human plasma IgG isoforms (the Fc target) or the individual human plasma IgG isoforms: IgG1, IgG2, IgG3, or IgG4. All Fc target proteins were obtained from Calbiochem.
(§10) All measurements were performed in 384 well microplates with 20 nM fluorescein-labeled peptide and various concentrations of the IgG isoform in a volume of between 10 and 20 μl using a Tecan Polarion fluorescence polarization plate reader. All binding buffers included 0.01% (v/v) Tween 20 to prevent peptide adsorption to the microplate. The binding mixture was equilibrated for 10 minutes in the microplate at 30° C. prior to performing the measurement.
(§11) Peptides were synthesized, fluorescein-labeled and HPLC purified as described above. Binding studies were performed using either a mixture of human plasma IgG isoforms (the Fc protein) or the individual human plasma IgG isoforms: IgG1, IgG2, IgG3, or IgG4.
(§12) Measurements were performed in 384-well microplates with 2 nM fluorescein-labeled peptide and a varied concentration of the IgG isoform target in a volume of 10 μl using a Tecan Polarion fluorescence polarization plate reader. The Fc binding buffer was 50 mM Tris-HCl, 200 mM NaCl, pH 8.0, 0.01% Tween 20. The IgG binding buffer was PBS with 0.01% Tween 20. The binding mixtures were equilibrated for 10 minutes in the microplate at 30° C. prior to performing the measurements.

[3] = biological target: Fc (mixture of human plasma IgG isoforms); assay: as above; details: 2 nM labeled peptide; 50 mM Tris-HCl, 200 mM NaCl, pH 8.0, 0.01% Tween 20
Procedure: as §9, §10, §11, §12

Compound: CC(=O)N[C@@H](C)C(=O)NCC(=O)N[C@H](C(=O)N[C@@H](Cc1ccc(O)cc1)C(=O)N[C@@H](Cc1c[nH]c2ccccc12)C(=O)N[C@H]1CSSC[C@@H](C(=O)N[C@@H](CC(=O)O)C(=O)N2CCC[C@H]2C(=O)N[C@@H](C)C(=O)N2CCC[C@H]2C(=O)NCC(=O)N2CCC[C@H]2C(=O)N[C@@H](CCC(=O)O)C(=O)NCC(=O)NCC(=O)NCC(=O)N[C@@H](CCCCN)C(N)=O)NC(=O)[C@@H]2CCCN2C(=O)[C@H](CC(C)C)NC(=O)[C@H](CCC(=O)O)NC(=O)[C@H](Cc2c[nH]c3ccccc23)NC(=O)[C@H](Cc2ccccc2)NC(=O)[C@H]([C@@H](C)O)NC1=O)[C@@H](C)O [DX404]
% IgG Capture - Batch Binding, Human IgG3 (IgG3): 74%
% IgG Capture - Batch Binding, Human IgG4 (IgG4): 10%
% IgG Capture - Batch Binding, Goat IgG (goat IgG): 0%
% IgG Capture - Batch Binding, Human IgG1 (human IgG1): 38%
% IgG Capture - Batch Binding, Human IgG2 (human IgG2): 11%
% IgG Capture - Batch Binding, Human IgG (human IgG): 30%
% IgG Capture - Batch Binding, Bovine IgG (bovine IgG): 0%
% IgG Capture - Batch Binding, Mouse IgG (mouse IgG): 2%
Kd (human plasma IgG2; 10 nM Tris-HCl, 500 mM Sodium Chloride, pH 7.5, read-out: KD (μM) IgG2 pH 7.5 + salt): > 10 µM
Kd (human plasma IgG2; 10 mM Sodium Bicarbonate, 500 mM Sodium Chloride, pH 9.5, read-out: KD (μM) IgG2 pH 9.5 + salt): > 10 µM
Kd (human plasma IgG2; 10 mM Sodium Bicarbonate, pH 9.5, read-out: KD (μM) IgG2 pH 9.5 − salt): > 10 µM
Kd (human plasma IgG2; 10 mM Sodium Citrate, 500 mM Sodium Chloride, pH 4.0, read-out: KD (μM) IgG2 pH 4.0 + salt): ~2 µM and 2 µM
Kd (human plasma IgG2; 10 mM Sodium Citrate, pH 4.0, read-out: KD (μM) IgG2 pH 4.0 − salt): ~2 µM
Kd (human plasma IgG1; 10 nM Tris-HCl, 500 mM Sodium Chloride, pH 7.5, read-out: KD (μM) IgG1 pH 7.5 + salt): > 10 µM
Kd (human plasma IgG1; 10 mM Sodium Bicarbonate, 500 mM Sodium Chloride, pH 9.5, read-out: KD (μM) IgG1 pH 9.5 + salt): > 10 µM
Kd (human plasma IgG1; 10 mM Sodium Bicarbonate, pH 9.5, read-out: KD (μM) IgG1 pH 9.5 − salt): > 10 µM
Kd (human plasma IgG1; 10 mM Sodium Citrate, 500 mM Sodium Chloride, pH 4.0, read-out: KD (μM) IgG1 pH 4.0 + salt): ~2 µM and 2 µM
Kd (human plasma IgG1; 10 mM Sodium Citrate, pH 4.0, read-out: KD (μM) IgG1 pH 4.0 − salt): ~2 µM
Kd (human plasma IgG3 [1]; 10 mM Sodium Bicarbonate, 500 mM Sodium Chloride, pH 9.5, read-out: KD (μM) IgG3 pH 9.5 + salt): > 10 µM
Kd (human plasma IgG3 [1]; 10 mM Sodium Bicarbonate, pH 9.5, read-out: KD (μM) IgG3 pH 9.5 − salt): > 10 µM
Kd (human plasma IgG3 [1]; 10 mM Sodium Citrate, 500 mM Sodium Chloride, pH 4.0, read-out: KD (μM) IgG3 pH 4.0 + salt): 0.2 µM
Kd (human plasma IgG3 [1]; 10 mM Sodium Citrate, pH 4.0, read-out: KD (μM) IgG3 pH 4.0 − salt): ~0.01 µM and 0.01 µM
Kd (human plasma IgG4; 10 nM Tris-HCl, 500 mM Sodium Chloride, pH 7.5, read-out: KD (μM) IgG4 pH 7.5 + salt): > 10 µM
Kd (human plasma IgG4; 10 mM Sodium Bicarbonate, 500 mM Sodium Chloride, pH 9.5, read-out: KD (μM) IgG4 pH 9.5 + salt): > 10 µM
Kd (human plasma IgG4; 10 mM Sodium Bicarbonate, pH 9.5, read-out: KD (μM) IgG4 pH 9.5 − salt): > 10 µM
Kd (human plasma IgG4; 10 mM Sodium Citrate, 500 mM Sodium Chloride, pH 4.0, read-out: KD (μM) IgG4 pH 4.0 + salt): > 10 µM
Kd (human plasma IgG4; 10 mM Sodium Citrate, pH 4.0, read-out: KD (μM) IgG4 pH 4.0 − salt): > 10 µM
Kd (human plasma IgG4; 10 mM Tris-HCl, pH 7.5, read-out: KD (μM) IgG4 pH 7.5 − salt): > 10 µM

KD (μM) IgG3 (human plasma IgG3 [2]): No binding
Kd [3]: 6.8 ± 4.3 µM
Compound: CC(=O)NCC(=O)N[C@@H](CC(=O)O)C(=O)N[C@@H](CCCNC(=N)N)C(=O)N[C@@H](CCCNC(=N)N)C(=O)N[C@@H](C)C(=O)N[C@H]1CSSC[C@@H](C(=O)N[C@@H](C)C(=O)NCC(=O)N[C@@H](Cc2c[nH]cn2)C(=O)N[C@@H](CCC(=O)O)C(=O)N2CCC[C@H]2C(=O)NCC(=O)N2CCC[C@H]2C(=O)N[C@@H](CCC(=O)O)C(=O)NCC(=O)NCC(=O)NCC(=O)N[C@@H](CCCCNC(=O)c2ccc3c(c2)C(=O)OC32c3ccc(O)cc3Oc3cc(O)ccc32)C(N)=O)NC(=O)[C@H](Cc2c[nH]c3ccccc23)NC(=O)[C@H](C(C)C)NC(=O)[C@H](CC(C)C)NC(=O)[C@H](C)NC(=O)CNC(=O)[C@H](CO)NC(=O)[C@H](Cc2c[nH]c3ccccc23)NC(=O)[C@H](CC(=O)O)NC(=O)[C@H](CCCNC(=N)N)NC(=O)[C@H](CO)NC1=O [DX301] (Ac-GDRRACSRDWSGALVWCAGHEPGPEGGGK(5FAM)-NH2; disulfide 6-17)
